Measurements: US20260183316A1, “CANNABICHROMENE-TYPE CANNABINOID COMPOSITIONS, METHODS AND USES THEREOF” (Cronos Group Inc., priority 2022, published 2026)
Values joined by “and” are separate entries in the source; they are usually repeats but may differ in a detail not shown here. Identical values can stand only once.

Legend:
C57BL/6 mice [1] = experiment: Catalepsy in the bar (ring) holding assay, tetrad; assay type: in vivo; details: for Lethargy Emax ± S.E.M.: catalepsy % MPE 60 sec, 5 min after 0.3-30 mg/kg p.o.; for dose-dependent catalepsy: ring holding assay 5 minutes after treatment, 0.3-30 mg/kg p.o.
Procedure: (§1) Female and male C57BL/6 mice between 8 and 12 weeks of age were used for these studies. Animals were group housed at the Laboratory Animal Services Unit (LASU) at the University of Saskatchewan (5 mice/cage for females, 3 mice/cage for males) with a standard 12:12 light-dark cycle, ad libitum access to food and water, and environmental enrichment. All compounds were prepared in a vehicle composed of ethanol and kolliphor in saline (1:1:8) for i.v. tail vein injections or olive oil for oral gavage (p.o.) at the doses indicated in description of the figures. Compounds were administered at the doses indicated in mg/kg body weight, with body weights being measured on the same day as drug administration. Experimenters were blinded to treatment for all assessments and analyses. Animals were purchased from Charles River Labs (Senneville, QC), rather than bred, to reduce animal numbers. At the end of experiments, mice were euthanized via isoflurane overdose and cardiac puncture. In all cases, experiments were performed with the approval of the University Animal Care Committee (UACC) at the University of Saskatchewan (Animal Use Protocol #20200043) and in keeping with the guidelines of the Canadian Council on Animal Care (CCAC).
(§2) Mice were assessed in the ‘tetrad’ battery of physiological and behavioural assessments. This included, in the following order: a bar holding assessment of catalepsy, rectal thermometer assessment of body temperature, a test of nociception in the warm water tail flick assay, and a test of locomotion and anxiety in the open field test (OFT). The precise timing of each measurement are stated in description of the figures. The same animals were used for all four measures of the tetrad.
Catalepsy was assessed in the bar holding assay after compound administration with mice placed so that their forepaws clasped a 0.7-cm ring clamp 4.5 cm above the surface of the testing space. The length of time the ring was held was recorded up to 60 sec (i.e., percent maximum possible effect [MPE] 60 seconds) with the trial ending if the mouse turned its […] or body or made three consecutive escape attempts. Activation of CB1R is associated with increased catalepsy.

C57BL/6 mice [2] = experiment: Body temperature by rectal thermometer, tetrad; assay type: in vivo; details: for dose-dependent hypothermia: 10 min after administration, 0.3-30 mg/kg p.o.; for Body temperature Emax ± S.E.M.: change in body temperature 10 min after 0.3-30 mg/kg p.o.
Procedure: as §1, §2
Body temperature was measured after compound administration by using a rectal thermometer. Activation of CB1R is associated with reduced body temperature.

C57BL/6 mice [3] = experiment: Nociception in the warm water tail flick assay, tetrad; assay type: in vivo; details: for ED50: Mus musculus, po, 20 min, tail flick 52° C., read-out: Pain relief ED50 (95% C.I.); for ED50 / Pain relief Emax ± S.E.M.: 20 min after 0.3-30 mg/kg p.o.; for Pain relief Emax ± S.E.M.: tail flick % MPE 20 sec; for dose-dependent reduction in pain sensation: warm water tail flick 20 minutes after administration, 0.3-30 mg/kg p.o.
Procedure: as §1, §2
Activation of CB1R is associated with elevated tail-flick latency (i.e. less nociception as indicated by the mouse keeping their tail in the water longer).

C57BL/6 mice [4] = experiment: Open field test (OFT): locomotion and time in central quadrant; assay type: in vivo; details: for dose-dependent reduction in movement in the OFT / time spent in the center of the OFT (anxiety-reducing effect): 30 minutes after administration, 0.3-30 mg/kg p.o.; for ED50: po, 0.5 h; for Movement Emax ± S.E.M.: OFT distance in 5 minutes
Procedure: as §1, §2
Locomotion was measured in the open field test (OFT) after compound administration. Mice were placed in the centre of an open chamber measuring 1 m×1 m for 5 minutes. Total distance travelled and time spent in the central quadrant of the field are recorded on a video camera, and the video analyzed in EthoVision XT (Noldus Information Technology Inc., Leesburg, VA).

C57BL/6 mice [5] = experiment: Elevated plus maze (EPM), modelled anxiety; assay type: in vivo; details: 10 mg/kg p.o., 30 minutes after treatment; for time spent in the closed arms of the EPM: post-hoc no differences
Procedure: (§3) In addition to the physiological assessment of the tetrad, mice were subjected to several behavioural assessments detailed here. These experiments followed a set timeline beginning 30 minutes after compound administration, based on an approximation that the maximum blood concentration of drug occurred 30-60 minutes after animals had received oral gavage. In these experiments the same type of mice were used for elevated plus maze, y-maze, and forced swim test back-to-back-to-back; however, this was a separate cohort of mice from those used in tetrad or PK experiments.
Modelled anxiety—the elevated plus maze: Mice were placed in the centre space of an elevated plus maze (EPM) standing 45 cm above the floor and having 2 closed-walled arms and 2 open arms each measuring 45 cm long. Mice were placed facing an open arm and their movement recorded for 5 minutes beginning 30 minutes after drug administration. Total distance travelled, arm entries, and time spent in each arm was recorded on a video camera and scored by an individual blinded to treatment group.

C57BL/6 mice [6] = experiment: y-maze, modelled exploratory behaviour and cognition; assay type: in vivo; details: 10 mg/kg p.o., 40 min after administration
Procedure: as §3
Modelled exploratory behaviour and cognition—the y-maze: The y-maze consists of three […] long×15 cm wide arms equally spaced 120° apart. Mice were allowed to habituate to the y-maze with one arm closed off (the novel arm) for 15 minutes 1 day prior to the experiment. On testing day, mice were placed in the centre space the y-maze facing the novel arm. Movement and arm entries were recorded for 5 min beginning 40 minutes after drug administration. Total distance travelled, arm entries, and % correct alternations between each arm were recorded on a video camera and scored by an individual blinded to treatment group.

rodents = details: intravenously administered, high doses (30 and 100 mg/kg); cited from earlier work
Long Evans rats = details: CBC 3-30 mg/kg following D9-THC 3 mg/kg intraperitoneal; cited from earlier work
[7] = oral gavage once daily for 14 days, cited from earlier work
[8] = Pharmacokinetic measurement of CBC in blood (HPLC-MS/MS); details: analyte CBC
C57BL/6 mice [9] = experiment: Forced swim test (FST), modelled behavioural despair and resiliency; assay type: in vivo; details: 10 mg/kg p.o., 50 min after administration
Procedure: as §3
Modelled behavioural despair and resiliency—the forced swim test: Mice were placed in 800 mL of 22° C. water in a clear beaker with a 10 cm diameter such that the depth of water was approximately 10-11 cm. Mice were allowed to swim and their movement recorded for 5 minutes beginning 50 minutes after drug administration. Time spent swimming and time spent immobile was recorded on a video camera and scored by an individual blinded to treatment group.

[10] = Pharmacokinetic measurement of THC in blood (HPLC-MS/MS); details: analyte THC
dogs = details: cited from earlier work
[11] = Mus musculus, OFT locomotion 30 min after 0.3-30 mg/kg p.o., read-out: Movement ED50 (95% C.I.)
[12] = time in central quadrant of OFT, 30 min after 0.3-30 mg/kg p.o.

CCCCCc1cc(O)c2c(c1)OC(C)(CCC=C(C)C)C=C2 (racemic) [CBC, cannabichromene]
Lethargy Emax ± S.E.M. (C57BL/6 mice [1]): 1.1 ± 0.16 %
dose-dependent catalepsy (C57BL/6 mice [1]): no dose-dependent catalepsy
dose-dependent hypothermia (C57BL/6 mice [2]): no dose-dependent hypothermia
Body temperature Emax ± S.E.M. (C57BL/6 mice [2]): 0.53 ± 0.27 °C
ED50 (C57BL/6 mice [3]): > 30 mg/kg
Pain relief Emax ± S.E.M. (C57BL/6 mice [3]): 37 ± 13%
dose-dependent reduction in pain sensation (C57BL/6 mice [3]): dose-dependent pain-relieving effects
dose-dependent reduction in movement in the OFT (C57BL/6 mice [4]): dose-dependent reduction in movement
time spent in the center of the OFT (anxiety-reducing effect) (C57BL/6 mice [4]): anxiety-reducing effect
ED50 (C57BL/6 mice [4]; [11]): 35 mg/kg
Movement Emax ± S.E.M. (C57BL/6 mice [4]; 30 min after 0.3-30 mg/kg p.o.): 1,600 ± 340 cm
Anxiety-reduction Emax ± S.E.M. (C57BL/6 mice [4]; [12]): 32 ± 7.2 s
open arm entries in the EPM (C57BL/6 mice [5]): trend toward CBC producing more open arm entries than other groups, this was not statistically significant
time spent in the closed arms of the EPM (C57BL/6 mice [5]): trend toward less time spent in the closed arms
% correct alternations in the y-maze (C57BL/6 mice [6]): increased % correct alternations compared to vehicle
tetrad effects (rodents): produced locomotor suppression, catalepsy, and hypothermia consistently at high doses
perceptual effects of D9-THC (Long Evans rats): did notsignificantly alter the perceptual effects of D9-THC
response rates (Long Evans rats): decrease response rates
concentrations in brain tissue [7]: highest concentrations in brain tissue
maximum observed concentration and AUC in plasma ([7]; of the four cannabinoids tested): highest maximum observed concentration and AUC
F ([8]; 10 mg/kg i.v., Combined): 100%
F ([8]; 10 mg/kg i.v., Female): 100%
F ([8]; 10 mg/kg i.v., Male): 100%
F ([8]; 10 mg/kg p.o., Combined): 39%
F ([8]; 10 mg/kg p.o., Female): 53%
F ([8]; 10 mg/kg p.o., Male): 27%

CCCCCc1cc(O)c2c(c1)OC(C)(C)[C@@H]1CCC(C)=C[C@@H]21 [THC, tetrahydrocannabinol]
ED50 (C57BL/6 mice [1]; Mus musculus, po, 5 min, catalepsy 5 min after 0.3-30 mg/kg p.o., male and female combined, read-out: Lethargy ED50 (95% C.I.)): ~12 mg/kg
Lethargy Emax ± S.E.M. (C57BL/6 mice [1]): 76% and 76 ± 16%
dose-dependent catalepsy (C57BL/6 mice [1]): increasing catalepsy in a dose-dependent manner
dose-dependent hypothermia (C57BL/6 mice [2]): dose-dependent hypothermia
ED50 (C57BL/6 mice [2]; Mus musculus, po, 10 min, 10 min after 0.3-30 mg/kg p.o., read-out: Body temperature ED50 (95% C.I.)): ~0.2 mg/kg
Body temperature Emax ± S.E.M. (C57BL/6 mice [2]): −2.8 °C and −2.8 ± 0.20 °C
ED50 (C57BL/6 mice [3]): ~3.8 mg/kg
Pain relief Emax ± S.E.M. (C57BL/6 mice [3]): 57% and 57 ± 16%
dose-dependent reduction in pain sensation (C57BL/6 mice [3]): dose-dependent reduction in pain sensation
dose-dependent reduction in movement in the OFT (C57BL/6 mice [4]): dose-dependent reduction in movement
time spent in the center of the OFT (anxiety-reducing effect) (C57BL/6 mice [4]): dose-dependent increase in the total time spent in the center of the OFT
ED50 (C57BL/6 mice [4]; [11]): ~6.6 mg/kg
ED50 (C57BL/6 mice [4]; Mus musculus, time in central quadrant of OFT, 30 min after 0.3-30 mg/kg p.o., read-out: Anxiety-reduction ED50 (95% C.I.)): > 30 mg/kg
Emax (C57BL/6 mice [4]; Mus musculus, OFT, versus vehicle-treated level of approximately 3,300 cm in 5 minutes, read-out: reduction in movement at maximum effect): 48%
Movement Emax ± S.E.M. (C57BL/6 mice [4]; 30 min after 0.3-30 mg/kg p.o.): 1,700 cm and 1,700 ± 980 cm
Anxiety-reduction Emax ± S.E.M. (C57BL/6 mice [4]; [12]): 81 ± 72 s
overall movement in the EPM (C57BL/6 mice [5]): reduced overall movement in the EPM, although this change was not statistically significant
time in the center of the EPM (C57BL/6 mice [5]): more time in the center compared to 1:6.92 (CBC:THC)
time in the open arms of the EPM (C57BL/6 mice [5]; not statistically significant): appeared to suppress time in the open arms
time spent in the closed arms of the EPM (C57BL/6 mice [5]): trend toward less time spent in the closed arms
% correct alternations in the y-maze (C57BL/6 mice [6]): appeared to reduce correct alternations
overall locomotion in the y-maze (C57BL/6 mice [6]): reduced overall locomotion
total arm entries in the y-maze (C57BL/6 mice [6]): lower
time swimming and time immobile in the FST compared to vehicle (C57BL/6 mice [9]): further suppressed swimming time and increased immobile time
F ([10]; 10 mg/kg i.v., Combined): 100%
F ([10]; 10 mg/kg i.v., Female): 100%
F ([10]; 10 mg/kg i.v., Male): 100%
F ([10]; 10 mg/kg p.o., Combined): 15%
F ([10]; 10 mg/kg p.o., Female): 33%
F ([10]; 10 mg/kg p.o., Male): 3.7%

CCCCCc1cc(OC(C)=O)c2c(c1)OC(C)(C)[C@@H]1CCC(C)=C[C@@H]21 [THC-OAc, tetrahydrocannabinol-o-acetate]
degree of ataxia compared with Δ9-THC (dogs): 2 fold
